The record followed here is US11479622B2, “Active energy ray curable composition, active energy ray curable ink, composition accommodating container, two or three dimensional image forming apparatus, two or three dimensional image forming method, cured matter, decorative matter, artificial nail composition, nail decorative material, and …” (priority 2019, dated 2022).

One data set relates to female mice. As for the experimental part:
According to the skin sensitization test based on the Local Lymph Node Assay (LLNA), the SI value was measured in the following manner.
As positive control material, α-hexylcinnamaldehyde (HCA; product of Wako Pure Chemical Industries, Ltd.) was used.
As a medium, a liquid mixture containing acetone (product of Wako Pure Chemical Industries, Ltd.) and olive oil (product of Fudimi Pharmaceutical Co., Ltd.) in a volume ratio of 4 to 1 was used.
Before the test, female mice were acclimated about the test substances, the positive control, the medium control for 8 days including 6-day quarantine.
Based on the body weights measured two days before the initiation of sensitization, they were categorized into two groups (four mice/group) by the body weight stratified random sampling method so that the body weight of each individual was within ±20 percent of the average body weight of all the individuals. Each of the animals for the test was eight to nine weeks old at the time of the initiation of sensitization. The individuals remaining after the categorization were excluded from the test.
The test substance was weighed in a measuring flask, and the volume of the test substance was adjusted to 1 mL with the medium. The thus-prepared test substance preparation was placed in a light-shielded airtight container (made of glass).
Prepared liquids and media of each of the test substance and positive control substance were applied to both auricles of the animal in an amount of 25 μL of each. A micropipettor was used for application. This treatment was performed once a day for three consecutive days.
About 48 hours after the final sensitization, the BrdU preparation liquid (0.5 mL) was intraperitoneally administered once to each of the animals.
About 24 hours after the administration of BrdU, the tested animals were allowed to undergo euthanasia, and their auricular lymph nodes were sampled. The surrounding tissue of each auricular lymph node was removed, and the auricular lymph nodes from both the auricles were collectively weighed. Also, the average and standard error of the weights of the auricular lymph nodes were calculated for each group. After the measurement of the weights, the auricular lymph nodes of each individual were stored in a frozen state using a biomedical freezer set to −20 degrees C.
After returning the auricular lymph nodes to room temperature, the auricular lymph nodes were mashed with the gradual addition of physiological saline, and suspended therein. The thus-obtained suspension was filtrated and thereafter dispensed into the wells of a 96-well microplate, with 3 wells being used per individual. The thus-dispensed suspensions were measured for intake of BrdU by the ELISA method. The reagents used were those of a commercially available kit (Cell Proliferation ELISA, BrdU colorimetric, Cat. No. 1647229, product of Roche Diagnostics Inc.). A multiplate reader (FLUOSTAR OPTIMA, product of BMG LABTECH Inc.) was used to measure the absorbance of each well (OD: 370 nm to 492 nm, the intake of BrdU), and the average of the absorbance of the 3 wells for each individual was used as the measurement of BrdU for the individual.
As shown in the following formula, the measurement of BrdU intake for each individual was divided by the average of the measurements of BrdU intake in the vehicle control group to calculate the SI value for the individual. The SI value of each test group was the average of the SI values of the individuals. […] SI=(Average (average of 3 well) of BrdU measuring value of individual)/(Average (average of four animals) of BrdU measuring value of medium control group) Relation 1

The conditions of data set [1]: in vivo.
A short description of data set [2]: Oral toxicity according to OECD Test Guideline TG423. Type of data set: in vivo.
The format of data set [3] is cell-based. The conditions noted are these: OECD test guideline TG471 (±S9mix).
The mark [4] stands for this setting: LLNA, BrdU intake by ELISA, mice, test substance 50.0 w/v percent in acetone/olive oil 4:1, 25 μL per auricle once per day × 3 days.

Read-outs that look alike come from different tables or passages of the source.

Consider `C=CC(=O)N(C)[C@@H](C)C(=O)OC` [Example A1-4, N-acryloyl-N-methyl alanine methyl ester], for which the “SI (stimulation index)” value in the data set with female mice (female, mouse, in vivo, 3 days) is given as “(See Synthesis Example 4) SI = 1.12”.
Still for that read-out and setting: in the case of `C=CC(=O)N1CCC(C(=O)OCC)CC1` [Example A1-7, N-acryloyl-piperidine-4-ethyl carboxylate] it was “(See Synthesis Example 7) SI = 1.70”; in that of `C=C(C)C(=O)OCCOCCOC(=O)C(=C)C` [Example B1-1, diethylene glycol dimethacrylate], 2G, SI = 1.05, manufactured by Shin-Nakamura Chemical Co.,Ltd.
As for `C=CC(=O)N(C)CC(=O)OC` [Example A1-1, N-acryloyl-N-methyl glycine methyl ester], the “PII (skin irritation)” value in data set [1] is recorded as 0.5. For the same compound, the “Oral toxicity, cases died” value in data set [2] was 0 out of 6. For the same compound, the LD50 (as a rule, the dose at which mortality reaches 50%) in data set [2] (in vivo, 2000 mg/kg) is at least 2000 mg/kg. Besides, in data set [3], the AMES test result is “negative”. Besides, in the data set with female mice (setting [4]), the “SI (stimulation index)” value is “(See Synthesis Example 1) SI = 1.00”. Further, the “SI value (skin sensitivity)” value in the data set with female mice (OECD Test Guideline TG442B) is on record as 1.00.
With `C=C(C)C(=O)OCC(CC)(COC(=O)C(=C)C)COC(=O)C(=C)C` [Example B1-3, trimethylol propane trimethacrylate], the “SI (stimulation index)” value in the data set with female mice (setting [4]) is listed as “TMPT, SI = 1.03, manufactured by Shin Nakamura Chemical Co., Ltd”.
Same read-out and setting: the entry for `C=CC(=O)OCC(CC)(COC(=O)C=C)COC(=O)C=C` [Example B2-1, reference compound] is “M-3547, SI = 3.42, manufactured by TOAGOSEI CO., LTD”.
The same measure, in the same setting: in the case of “Isobornyl acrylate [Example A2-2, reference compound]” it was “Isobornyl acrylate, SI = 8.30, manufactured by Osaka Organic Chemical Company”.
`C=C(C)C(=O)OCC(COC(=O)C(=C)C)OC(C)=O` [Example B1-6, 2-acetyl-1,3-glycerol dimethacrylate]: the “SI (stimulation index)” value in the data set with female mice (female, mouse, in vivo, 3 days) is “(See Synthesis Example 8) SI = 1.40”.
Same read-out and setting: the entry for `C=CC(=O)N(CC(=O)OC)C(C)C` [Example A1-3, N-acryloyl-N-isopropyl glycine methyl ester] is “(See Synthesis Example 3) SI = 1.05”.
With `C=C(C)C(=O)OCCO` [Example A2-1, 2-hydroxyethyl methacrylate, reference compound], the “SI (stimulation index)” value in the data set on female mice (setting [4]) was 2-hydroxyethyl methacrylate, SI = 1.26, Manufactured by Tokyo Chemical Industry Co. Ltd.
For `C=CC(=O)N(C)[C@@H](C)C(=O)OC(C)C` [Example A1-6, N-acryloyl-N-methyl alanine isopropyl ester], the “SI (stimulation index)” value in the data set on female mice (female, mouse, in vivo, 3 days) is on record as “(See Synthesis Example 6) SI = 1.21”.
